Data reported in patent US5622962A, “5α-reductase inhibitors” (priority 1995, dated 1997).

Tests used:
[1] = target: T1, Type II 5α-Reductase from Human Prostate (Homo sapiens, UniProt P31213); assay: Human Type II 5α-reductase assay (conversion of [3H]-testosterone to 5α-reduced metabolites); assay type: biochemical; details: sodium acetate pH 5.5, 25°, 30 min, compared to control reaction mixtures; for inhibition at 0.3 µM: pH 5.5, 0.3 μM, read-out: percent inhibition of Type II AR
T1 construct: The same procedure as above was used for preparations using tissue from prostate surgery; from tissue; host or cells: human prostate tissue from surgery, homogenate, 100,000×g pellet
T1 sequence (P31213 1-254): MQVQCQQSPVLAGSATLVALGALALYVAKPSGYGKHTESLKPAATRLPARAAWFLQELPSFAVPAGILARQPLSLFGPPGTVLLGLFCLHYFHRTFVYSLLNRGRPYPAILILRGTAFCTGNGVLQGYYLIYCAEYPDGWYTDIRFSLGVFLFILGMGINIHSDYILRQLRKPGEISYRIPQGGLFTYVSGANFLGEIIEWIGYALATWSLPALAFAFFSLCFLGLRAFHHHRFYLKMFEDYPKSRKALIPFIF

[2] = target: T2, Type I 5α-Reductase from Human Scalp (Homo sapiens, UniProt P18405); assay: Human Type I 5α-reductase assay (conversion of [3H]-testosterone to 5α-reduced metabolites); assay type: biochemical; details: 50 nM [3H]-testosterone, pH 7.5, 25°, 180 min, compared to control reaction mixtures; for inhibition at 0.3 µM: pH 7.5, 0.3 μM, read-out: percent inhibition of Type I AR
T2 construct: Scalp punch biopsies from graft recipient sites were obtained from human hair transplant procedures; from tissue; host or cells: human scalp punch biopsies (hair transplant graft recipient sites), homogenate, 100,000×g pellet
T2 sequence (P18405 1-259): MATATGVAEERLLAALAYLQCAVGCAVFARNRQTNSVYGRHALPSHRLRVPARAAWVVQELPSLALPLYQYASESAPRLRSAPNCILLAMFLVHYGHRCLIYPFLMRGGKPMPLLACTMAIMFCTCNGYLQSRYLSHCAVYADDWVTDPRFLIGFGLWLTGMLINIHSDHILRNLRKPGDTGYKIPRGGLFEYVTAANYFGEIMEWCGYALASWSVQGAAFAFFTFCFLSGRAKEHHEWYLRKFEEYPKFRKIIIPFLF

Compound | inhibition at 0.3 µM [1] [%] | inhibition at 0.3 µM [2] [%] | percent inhibition of Type II AR ([1]; 0.3 μM) [%] | percent inhibition of Type I AR ([2]; 0.3 μM) [%]
CN1C(=O)CC[C@]2(C)c3ccc(Sc4cnccn4)cc3CC[C@@H]12 [Example 152, (+)-(4aR)-(10bR)-4-methyl-8-(2-pyrazinylthio)-10b-methyl-1,2,3,4,4a,5,6,10b-octahydrobenzo[f]quinolin-3-one] | 10 | 47 |  | 
CN1C(=O)CC[C@]2(C)c3ccc(Sc4nnnn4-c4ccccc4)cc3CC[C@@H]12 [Example 154, (+)-(4aR)-(10bR)-4-methyl-8-(2-[3-phenyl]tetrazoylthio)-10b-methyl-1,2,3,4,4a,5,6,10b-octahydrobenzo[f]quinolin-3-one] | 25 | 56 |  | 
CN1C(=O)CC[C@]2(C)c3ccc(Sc4ccc(C(F)(F)F)cn4)cc3CC[C@@H]12 [Example 155, (+)-(4aR)-(10bR)-4-methyl-8-(2-[5-trifluoromethyl]pyridylthio)-10b-methyl-1,2,3,4,4a,5,6,10b-octahydrobenzo[f]-quinolin-3-one] | 60 | 58 |  | 
CN1C(=O)CC[C@]2(C)c3ccc(Sc4n[nH]c5ccccc45)cc3CC[C@@H]12 [Example 156, (+)-(4aR)-(10bR)-4-methyl-8-(3-indazolylthio)-10b-methyl-1,2,3,4,4a,5,6,10b-octahydrobenzo[f]quinolin-3-one] | 70 | 71 |  | 
CC(C)c1cccc2sc(Sc3ccc4c(c3)CC[C@H]3N(C)C(=O)CC[C@]43C)nc12 [Example 157, (+)-(4aR)-(10bR)-4-methyl-8-(2-[4-isopropyl]benzothiazolylthio)-10b-methyl-1,2,3,4,4a,5,6,10b-octahydrobenzo[f]-quinolin-3-one] | 79 | 88 |  | 
Cc1cccc2sc(Sc3ccc4c(c3)CC[C@H]3N(C)C(=O)CC[C@]43C)nc12 [Example 159, (+)-(4aR)-(10bR)-4-methyl-8-(4-methyl-2-benzothiazolylthio)-10b-methyl-I, 2,3,4,4a,5,6,10b-octahydrobenzo[f]quinolin-3-one] | 87 |  | 83 | 87
CN1C(=O)CC[C@]2(C)c3ccc(Sc4nc5c(F)cccc5s4)cc3CC[C@@H]12 [Example 162, (+)-(4aR)-(10bR)-4-methyl-8-(4-fluoro-2-benzothiazolylthio)-10b-methyl-1,2,3,4,4a,5,6,10b-octahydrobenzo[f]quinolin-3-one] | 87 | 79 |  | 

Further lines, results first:

inhibition at 0.3 µM [1] [%] | inhibition at 0.3 µM [2] [%] | percent inhibition of Type II AR ([1]; 0.3 μM) [%] | percent inhibition of Type I AR ([2]; 0.3 μM) [%] | Compound
71 | 49 |  |  | CN1C(=O)CC[C@]2(C)c3ccc(Sc4cnc5ccccc5n4)cc3CC[C@@H]12 [Example 153, (+)-(4aR)-(10bR)-4-methyl-8-(2-quinoxalinylthio)-10b-methyl-1,2,3,4,4a,5,6,10b-octahydrobenzo[f]quinolin-3-one]
63 | 78 |  |  | CN1C(=O)CC[C@]2(C)c3ccc(Sc4nc5ccc(Cl)cc5s4)cc3CC[C@@H]12 [Example 158, (+)-(4aR)-(10bR)-4-methyl-8-(6-chloro-2-benzothiazolylthio)-10b-methyl-1,2,3,4,4a,5,6,10b-octahydrobenzo[f]quinolin-3-one]
38 | 61 |  |  | CN1C(=O)CC[C@]2(C)c3ccc(Sc4nc5cc([N+](=O)[O-])ccc5s4)cc3CC[C@@H]12 [Example 160, (+)-(4aR)-(10bR)-4-methyl-8-(5-nitro-2-benzothiazolylthio)-10b-methyl-1,2,3,4,4a,5,6,10b-octahydrobenzo[f]quinolin-3-one]
51 | 71 |  |  | COc1ccc2nc(Sc3ccc4c(c3)CC[C@H]3N(C)C(=O)CC[C@]43C)sc2c1 [Example 161, (+)-(4aR)-(10bR)-4-methyl-8-(6-methoxy-2-benzothiazolylthio)-10b-methyl-1,2,3,4,4a,5,6,10b-octahydrobenzo[f]quinolin-3-one]
